# Experimental data as given in patent EP4725507A1, “POLYPEPTIDE CONJUGATE, PHARMACEUTICAL COMPOSITION CONTAINING POLYPEPTIDE CONJUGATE AND USE THEREOF” (Nanjing Anji Biotechnology Co., Ltd., priority 2023, dated 2025).
# Peptide text beside a SMILES is read from it. * marks the point of attachment. Paclitaxel(2'-O-succinyl) = CC(=O)O[C@H]1C(=O)[C@@]2(C)[C@H]([C@H](OC(=O)c3ccccc3)[C@]3(O)C[C@H](OC(=O)[C@H](OC(=O)CCC(=O)*)[C@@H](NC(=O)c4ccccc4)c4ccccc4)C(C)=C1C3(C)C)[C@]1(OC(C)=O)CO[C@@H]1C[C@@H]2O
# Experiments:
# [1] = tested on: non-small cell lung cancer A549 xenograft tumors; test: In vivo tumor-inhibitory activity of DOC-AI, A549 xenograft; design: species or system BALB/c nude mice; settings: 4 days on, 3 days off until day 21
# Experimental: (§1) Non-small cell lung cancer A549 cells and human gastric cancer MKN-45 cells were preserved in F12-K medium containing 10% fetal bovine serum and 1% penicillin + streptomycin, and incubated at 37°C with 5% CO2 and 95% humidity. The aforementioned cells were cultured in T175 flasks with an experimental cell density of 80%. The aforementioned cell lines were mycoplasma-negative. Both A549 cells and MKN-45 cells were provided by Nanjing Anji Biotechnology Co., Ltd.
# Non-small cell lung cancer A549 cells in the vigorous growth stage were taken and inoculated subcutaneously into the right axilla of BALB/c nude mice (Nanjing Zhonghua Biotechnology Co., Ltd.) under sterile conditions, with a cell inoculation amount of 1×10^7. The diameter of transplanted tumors in nude mice was measured with a vernier caliper. When the tumors grew to approximately 50 mm^3, 30 tumor-bearing nude mice with good growth status and relatively uniform tumor size were selected and divided into 5 groups, with 6 mice in each group. The administration frequency was continuous administration for 4 days followed by an interval of 3 days, and this cycle was repeated until day 21. The anti-tumor effect in the nude mice was dynamically observed by measuring the tumor diameter. The tumor diameter was measured every other day, and the body weight of the nude mice was weighed simultaneously during the measurement of the tumor diameter. After 21 days of administration, the nude mice were euthanized, the tumor inhibition rate (%) was calculated, and the tumor masses were peeled off and weighed. Table 2 Detection of In Vivo Tumor-Inhibitory Activity of DOC-AI
# [2] = tested on: human gastric cancer cell MKN45 xenograft tumors; test: In vivo tumor-inhibitory activity of PTX-AI, MKN45 xenograft; design: species or system BALB/c nude mice; settings: 21 days; for Final Tumor Volume: in mm³ (unit assumed)
# Experimental: as §1
# Human gastric cancer cells MKN-45 in the vigorous growth stage were taken and inoculated subcutaneously into the right axilla of BALB/c nude mice under sterile conditions, with a cell inoculation amount of 5×10^6. The diameter of transplanted tumors in nude mice was measured with a vernier caliper. When the tumors grew to approximately 50mm^3, […] tumor-bearing nude mice with good growth status and relatively uniform tumor size were selected, and divided into 6 groups, including 10 mice in the model group and 8 mice in each of the remaining groups. The anti-tumor effect of the test substance was dynamically observed by measuring the tumor diameter. The tumor diameter was measured every other day, and the body weight of the nude mice was weighed simultaneously during the measurement of the tumor diameter. After 21 days of administration, the nude mice were euthanized, the tumor inhibition rate (%) was calculated, and the tumor masses were peeled off and weighed. Table 3 Detection of In Vivo Tumor-Inhibitory Activity of PTX-AI
# [3] = 2.64 µmol/Kg, once every other day
# [4] = 4.07 µmol/Kg, once every other day
# [5] = 5.28 µmol/Kg, continuous administration for 4 days a week
# [6] = 7.92 µmol/Kg, once every other day
compound,measurement,setting,value
CC(=O)O[C@@]12CO[C@@H]1C[C@H](O)[C@@]1(C)C(=O)[C@H](O)C3=C(C)[C@@H](OC(=O)[C@H](OC(=O)CCC(=O)N[C@@H](CCCNC(=N)N)C(=O)N[C@@H](CO)C(=O)N4CCC[C@H]4C(=O)N[C@@H](Cc4ccc(O)cc4)C(=O)N[C@@H](C)C(=O)N[C@@H](CC(N)=O)C(=O)N[C@@H](CO)C(=O)O)[C@@H](NC(=O)OC(C)(C)C)c4ccccc4)C[C@@](O)([C@@H](OC(=O)c4ccccc4)[C@H]21)C3(C)C [DOC-AI],Final Tumor Volume,[1]; 6.20 µmol/Kg,73.75±23.01
same,Tumor Inhibition Rate,[1]; 6.20 µmol/Kg,90.40%
same,Tumor Weight,[1]; 6.20 µmol/Kg,81.00 ± 40.81 mg
same,Final Tumor Volume,[1]; 12.40 µmol/Kg,31.31±22.73
same,Tumor Inhibition Rate,[1]; 12.40 µmol/Kg,95.33%
same,Tumor Weight,[1]; 12.40 µmol/Kg,51.83 ± 31.36 mg
same,Final Tumor Volume,[1]; 24.80 µmol/Kg,20.30±20.80
same,Tumor Inhibition Rate,[1]; 24.80 µmol/Kg,97.33%
same,Tumor Weight,[1]; 24.80 µmol/Kg,20.53 ± 20.80 mg
CC(=O)O[C@H]1C(=O)[C@@]2(C)[C@H]([C@H](OC(=O)c3ccccc3)[C@]3(O)C[C@H](OC(=O)[C@H](OC(=O)CCC(=O)N[C@@H](CCCNC(=N)N)C(=O)N[C@@H](CO)C(=O)N4CCC[C@H]4C(=O)N[C@@H](Cc4ccc(O)cc4)C(=O)N[C@@H](C)C(=O)N[C@@H](CC(N)=O)C(=O)N[C@@H](CO)C(=O)O)[C@@H](NC(=O)c4ccccc4)c4ccccc4)C(C)=C1C3(C)C)[C@]1(OC(C)=O)CO[C@@H]1C[C@@H]2O [PTX-AI] ({Paclitaxel(2'-O-succinyl)}-RSPYANS-OH),Tumor Inhibition Rate,[2]; [3],36.3%
same,Tumor Weight,[2]; [3],0.961 ± 0.119 g
same,Final Tumor Volume,[2]; [3],934.0±125.0
same,Tumor Inhibition Rate,[2]; [4],42.9%
same,Tumor Weight,[2]; [4],0.861 ± 0.126 g
same,Final Tumor Volume,[2]; [4],852.1±137.3
same,Tumor Inhibition Rate,[2]; [5],53.3%
same,Tumor Weight,[2]; [5],0.705 ± 0.066 g
same,Final Tumor Volume,[2]; [5],700.6±59.6
same,Tumor Inhibition Rate,[2]; [6],60.8%
same,Tumor Weight,[2]; [6],0.591 ± 0.099 g
same,Final Tumor Volume,[2]; [6],579.8±91.9
